The assay addresses T1, ITK (Homo sapiens, UniProt Q08881).
T1 construct: purchased Invitrogen PV3875
T1 sequence (Q08881 1-620): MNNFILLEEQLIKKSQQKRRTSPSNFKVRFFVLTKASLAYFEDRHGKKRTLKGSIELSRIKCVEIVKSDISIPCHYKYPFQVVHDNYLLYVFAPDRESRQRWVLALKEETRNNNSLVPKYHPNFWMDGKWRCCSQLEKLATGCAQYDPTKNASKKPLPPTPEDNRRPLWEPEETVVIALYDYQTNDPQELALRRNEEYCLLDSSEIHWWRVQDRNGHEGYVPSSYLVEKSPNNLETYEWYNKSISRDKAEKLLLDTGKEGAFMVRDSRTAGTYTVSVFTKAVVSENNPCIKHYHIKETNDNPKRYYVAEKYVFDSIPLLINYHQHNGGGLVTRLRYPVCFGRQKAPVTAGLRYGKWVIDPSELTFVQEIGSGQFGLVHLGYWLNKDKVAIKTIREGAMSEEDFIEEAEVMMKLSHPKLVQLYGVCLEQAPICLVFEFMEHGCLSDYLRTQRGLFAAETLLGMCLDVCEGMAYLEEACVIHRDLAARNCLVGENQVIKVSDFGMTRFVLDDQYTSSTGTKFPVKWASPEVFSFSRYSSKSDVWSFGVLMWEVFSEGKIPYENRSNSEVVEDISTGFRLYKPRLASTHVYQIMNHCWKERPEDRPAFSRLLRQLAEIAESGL
In words: ITK enzyme assay (Caliper or LCMS peptide phosphorylation). The class given is biochemical. The conditions noted are these: purified ITK (Invitrogen PV3875), 20 μM ATP, Ki by Morrison's quadratic equation. Put shortly:
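Purified human ITK peptide phosphorylation, quenched with EDTA (50 mM final) for Caliper LabChip separation or TCA (5% v/v final) for UPLC-MS/MS MRM quantification. Ki derived via Morrison tight-binding equation, corrected for competitive inhibition using ATP concentration relative to Km,app.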
`CC1CC(C(c2ccccc2)n2cc(NC(=O)c3n[nH]c4c3CCC(C)(C)C4)cn2)CCS1(=O)=O` (single isomer, unassigned) [Example 139c, 6,6-dimethyl-N-(1-((2-methyl-1,1-dioxidotetrahydro-2H-thiopyran-4-yl)(phenyl)methyl)-1H-pyrazol-4-yl)-4,5,6,7-tetrahydro-1H-indazole-3-carboxamide] registered a Ki of 12 nM. The compound `CC1CC(C(c2ccccc2)n2cc(NC(=O)c3n[nH]c4c3CCC(C)(C)C4)cn2)CCS1(=O)=O` (single isomer, unassigned) [Example 139d, 6,6-dimethyl-N-(1-((2-methyl-1,1-dioxidotetrahydro-2H-thiopyran-4-yl)(phenyl)methyl)-1H-pyrazol-4-yl)-4,5,6,7-tetrahydro-1H-indazole-3-carboxamide] yielded a Ki of 12 nM.

Turning to `CC1CC(C(c2ccccc2)n2cc(NC(=O)c3n[nH]c4c3CCC(C)(C)C4)cn2)CCS1(=O)=O` (single isomer, unassigned) [Example 139e, 6,6-dimethyl-N-(1-((2-methyl-1,1-dioxidotetrahydro-2H-thiopyran-4-yl)(phenyl)methyl)-1H-pyrazol-4-yl)-4,5,6,7-tetrahydro-1H-indazole-3-carboxamide], the Ki worked out at 1 nM.

On to `CC1CC(C(c2ccccc2)n2cc(NC(=O)c3n[nH]c4c3CCC(C)(C)C4)cn2)CCS1(=O)=O` (single isomer, unassigned) [Example 139f, 6,6-dimethyl-N-(1-((2-methyl-1,1-dioxidotetrahydro-2H-thiopyran-4-yl)(phenyl)methyl)-1H-pyrazol-4-yl)-4,5,6,7-tetrahydro-1H-indazole-3-carboxamide], for which the affinity corresponds to a Ki of 0.6 nM. Compared with the last compound, the Ki is about 1.7-fold lower. Then `CC1CC(C(c2ccccc2)n2cc(NC(=O)c3n[nH]c4c3CCC(C)(C)C4)cn2)CCS1(=O)=O` (single isomer, unassigned) [Example 139g, 6,6-dimethyl-N-(1-((2-methyl-1,1-dioxidotetrahydro-2H-thiopyran-4-yl)(phenyl)methyl)-1H-pyrazol-4-yl)-4,5,6,7-tetrahydro-1H-indazole-3-carboxamide], with 8 nM; and `CC1CC(C(c2ccccc2)n2cc(NC(=O)c3n[nH]c4c3CCC(C)(C)C4)cn2)CCS1(=O)=O` (single isomer, unassigned) [Example 139h, 6,6-dimethyl-N-(1-((2-methyl-1,1-dioxidotetrahydro-2H-thiopyran-4-yl)(phenyl)methyl)-1H-pyrazol-4-yl)-4,5,6,7-tetrahydro-1H-indazole-3-carboxamide], with 12 nM. Then `CC1(C)CCc2c(C(=O)Nc3cnn(C(c4ccccc4)C4CC[N+](C)([O-])CC4)c3)n[nH]c2C1` (single isomer, unassigned) [Example 140a, 4-((4-(6,6-dimethyl-4,5,6,7-tetrahydro-1H-indazole-3-carboxamido)-1H-pyrazol-1-yl)(phenyl)methyl)-1-methylpiperidine 1-oxide], with 0.4 nM; and `CC1(C)CCc2c(C(=O)Nc3cnn(C(c4ccccc4)C4CC[N+](C)([O-])CC4)c3)n[nH]c2C1` (single isomer, unassigned) [Example 140b, 4-((4-(6,6-dimethyl-4,5,6,7-tetrahydro-1H-indazole-3-carboxamido)-1H-pyrazol-1-yl)(phenyl)methyl)-1-methylpiperidine 1-oxide], with 14 nM. Regarding `CC12Cc3[nH]nc(C(=O)Nc4cnn(C(c5ccccc5)C5CC[S+]([O-])CC5)c4)c3CC1C2(F)F` (single isomer, unassigned) [Example 142a, 5,5-difluoro-5a-methyl-N-(1-((1-oxidotetrahydro-2H-thiopyran-4-yl)(phenyl)methyl)-1H-pyrazol-4-yl)-1,4,4a,5,5a,6-hexahydrocyclopropa[f]indazole-3-carboxamide], the Ki was below 0.1 nM. `CC12Cc3[nH]nc(C(=O)Nc4cnn(C(c5ccccc5)C5CC[S+]([O-])CC5)c4)c3CC1C2(F)F` (single isomer, unassigned) [Example 142b, 5,5-difluoro-5a-methyl-N-(1-((1-oxidotetrahydro-2H-thiopyran-4-yl)(phenyl)methyl)-1H-pyrazol-4-yl)-1,4,4a,5,5a,6-hexahydrocyclopropa[f]indazole-3-carboxamide] came in with a Ki below 0.1 nM. Then `CC12Cc3[nH]nc(C(=O)Nc4cnn(C(c5ccccc5)C5CCCCS5(=O)=O)c4)c3CC1C2` (single isomer, unassigned) [Example 143a, N-(1-((1,1-dioxidotetrahydro-2H-thiopyran-2-yl)(phenyl)methyl)-1H-pyrazol-4-yl)-5a-methyl-1,4,4a,5,5a,6-hexahydrocyclopropa[f]indazole-3-carboxamide], with below 0.1 nM. The compound `CC12Cc3[nH]nc(C(=O)Nc4cnn(C(c5ccccc5)C5CCCCS5(=O)=O)c4)c3CC1C2` (single isomer, unassigned) [Example 143b, N-(1-((1,1-dioxidotetrahydro-2H-thiopyran-2-yl)(phenyl)methyl)-1H-pyrazol-4-yl)-5a-methyl-1,4,4a,5,5a,6-hexahydrocyclopropa[f]indazole-3-carboxamide] had a Ki of 2 nM. Then `CC12Cc3[nH]nc(C(=O)Nc4cnn(C(c5ccccc5)C5CCCCS5(=O)=O)c4)c3CC1C2` (single isomer, unassigned) [Example 143c, N-(1-((1,1-dioxidotetrahydro-2H-thiopyran-2-yl)(phenyl)methyl)-1H-pyrazol-4-yl)-5a-methyl-1,4,4a,5,5a,6-hexahydrocyclopropa[f]indazole-3-carboxamide], with 2 nM; and `CC12Cc3[nH]nc(C(=O)Nc4cnn(C(c5ccccc5)C5CCCCS5(=O)=O)c4)c3CC1C2` (single isomer, unassigned) [Example 143d, N-(1-((1,1-dioxidotetrahydro-2H-thiopyran-2-yl)(phenyl)methyl)-1H-pyrazol-4-yl)-5a-methyl-1,4,4a,5,5a,6-hexahydrocyclopropa[f]indazole-3-carboxamide], with below 0.1 nM; and `CC1(C)CCc2c(C(=O)Nc3cnn(C(c4cccnc4)C4CCCCS4(=O)=O)c3)n[nH]c2C1` (single isomer, unassigned) [Example 144a, N-(1-((1,1-dioxidotetrahydro-2H-thiopyran-2-yl)(pyridin-3-yl)methyl)-1H-pyrazol-4-yl)-6,6-dimethyl-4,5,6,7-tetrahydro-1H-indazole-3-carboxamide], with 0.1 nM. Under `CC1(C)CCc2c(C(=O)Nc3cnn(C(c4cccnc4)C4CCCCS4(=O)=O)c3)n[nH]c2C1` (single isomer, unassigned) [Example 144b, N-(1-((1,1-dioxidotetrahydro-2H-thiopyran-2-yl)(pyridin-3-yl)methyl)-1H-pyrazol-4-yl)-6,6-dimethyl-4,5,6,7-tetrahydro-1H-indazole-3-carboxamide] stands 3 nM; under `CC1(C)CCc2c(C(=O)Nc3cnn(C(c4cccnc4)C4CCCCS4(=O)=O)c3)n[nH]c2C1` (single isomer, unassigned) [Example 144c, N-(1-((1,1-dioxidotetrahydro-2H-thiopyran-2-yl)(pyridin-3-yl)methyl)-1H-pyrazol-4-yl)-6,6-dimethyl-4,5,6,7-tetrahydro-1H-indazole-3-carboxamide], 0.1 nM. In turn, `CC1(C)CCc2c(C(=O)Nc3cnn(C(c4cccnc4)C4CCCCS4(=O)=O)c3)n[nH]c2C1` (single isomer, unassigned) [Example 144d, N-(1-((1,1-dioxidotetrahydro-2H-thiopyran-2-yl)(pyridin-3-yl)methyl)-1H-pyrazol-4-yl)-6,6-dimethyl-4,5,6,7-tetrahydro-1H-indazole-3-carboxamide] displayed a Ki of 2 nM. This Ki is about 20-fold higher than that of the compound before. Under `CC12Cc3[nH]nc(C(=O)Nc4cnn(C(c5cccnc5)C5CC[S+]([O-])CC5)c4)c3CC1C2` (single isomer, unassigned) [Example 146a, 5a-methyl-N-(1-((1-oxidotetrahydro-2H-thiopyran-4-yl)(pyridin-3-yl)methyl)-1H-pyrazol-4-yl)-1,4,4a,5,5a,6-hexahydrocyclopropa[f]indazole-3-carboxamide] stands 0.1 nM. Under `CC12Cc3[nH]nc(C(=O)Nc4cnn(C(c5cccnc5)C5CC[S+]([O-])CC5)c4)c3CC1C2` (single isomer, unassigned) [Example 146b, 5a-methyl-N-(1-((1-oxidotetrahydro-2H-thiopyran-4-yl)(pyridin-3-yl)methyl)-1H-pyrazol-4-yl)-1,4,4a,5,5a,6-hexahydrocyclopropa[f]indazole-3-carboxamide] stands 2 nM; under `CC12Cc3[nH]nc(C(=O)Nc4cnn(C(c5cccnc5)C5CC[S+]([O-])CC5)c4)c3CC1C2` (single isomer, unassigned) [Example 146c, 5a-methyl-N-(1-((1-oxidotetrahydro-2H-thiopyran-4-yl)(pyridin-3-yl)methyl)-1H-pyrazol-4-yl)-1,4,4a,5,5a,6-hexahydrocyclopropa[f]indazole-3-carboxamide], 0.1 nM.

One may read the Ki as a measure of affinity in units of concentration, obtained from inhibition or displacement. Low values mean a stronger hold on the target, high ones a looser hold on the target.
